Data as given in patent publication US20230303577A1, “TEMOZOLOMIDE ANALOGS AND METHODS OF USE” (St. John's Cancer Institute, priority 2020, published 2023).
Where two headings read alike, the source gives them in different places. Values belong to the compound of their own block, whether it stands above or below them.

Legend:
U251 [1] = details: read-out: IC50 U251 cell proliferation (BrdU ELISA); 72 hours of treatment
Procedure: U87 cells were seeded at the density of 2,000 cells/well in 96-well plates and incubated overnight. The day after, cells were treated with various concentrations of Temozolomide or analogs for 72 hours. The BrdU ELISA proliferation assay was performed according to the manufacturer's instructions (Roche, #11647229001). Briefly, 20 μl of diluted BrdU labelling reagent was added to each well, to a final concentration of 10 μM BrdU per well. The cells were then incubated at 37° C. for 24 hours. Following this incubation, the labeling medium was aspirated from each well and 200 μl of Roche FixDenat fixing buffer was added. The plates were then incubated at 25° C. for 30 minutes. The fixing solution was removed, and 100 μl of Anti-BrdU-POD antibody was added to each well and incubated again at 25° C. for 90 minutes. Wells were rinsed three times with 200 μl of PBS, then 100 μl of Roche Substrate solution was added to each well. Following a 25 minute incubation at room temperature, the absorbance of each plate was read at 370 nm (reference wavelength: approx. 492 nm) on a Spectramax® i3x microplate reader.
The effect on U251 cell proliferation after 72 hours of treatment was also assessed using the BrdU ELISA cell proliferation assay as described in Example 11.

[2] = for % decomp.: AIC formation, pH>7.4, 60° C.; for % SM: phosphate buffer pH>7.4, 60° C.
Procedure: 2 mg of TP-RGD was dissolved in 0.8 mL of phosphate buffer at pH>7.4. […] Then the reaction temperature was increased to 60° C. and incubated for 4 h. During the period of incubation, the reaction was monitored for every 30 min by LC-MS. Measure the AIC formation (% decomp) over the time.

P-glycoprotein (P-gp) = test: Bidirectional Caco-2 permeability / P-gp efflux assay; type: in vitro ADME; details: human; Caco-2 permeability; P-gp efflux ratio, Table 15
Procedure: (§1) Permeability of the compounds was evaluated in the bidirectional Caco-2 assay including identification of P-glycoprotein substrate (Pgp-mediated transport). Verapamil was used as a p-gp inhibitor. The apparent permeability (Papp) was calculated using the following equation:
(§2) Papp=VA/Area×Time×[drug]acc/[drug]initial,d
(§3) Permeability of the compounds was evaluated in the bidirectional Caco-2 assay as described in Example 11 (Table 15).

U87 = test: cells; details: read-out: IC50, 72 h
Procedure: (§4) The effect of selected compounds on glioma cells viability was determined. The cells were plated at 2000 cells/well in 96 well plates. The day after, cells were treated with various concentrations of temozolomide or VMY-TP analogs.
(§5) Activity of TP-RGD was assessed in glioma cell cultures, as described in Example 11.

T98G = test: cells
Procedure: as §4, §5

U251 [3] = test: cells; details: read-out: IC50, 72 h
Procedure: as §4, §5

A172 = test: cells; details: read-out: IC50, 72 h; A172, MGMT −, Table 14
Procedure: as §4, §5

P-gp = test: Bidirectional Caco-2 permeability / P-gp efflux assay; type: in vitro ADME; details: human
Procedure: as §1, §2, §3

Caco-2 = test: as above; type: in vitro ADME; details: human, Caco-2
Procedure: as §1, §2, §3

T98G cells = test: Cell Titer Glo viability of T98G cells with or without O6-BG pretreatment; type: cell-based
Procedure: T98G cells, which express MGMT, were treated with TMZ or test compounds with or without 3, 6, or 24 hours of pretreatment with 100 μM of O^6-benzylguanine (O^6-BG; a pseudo-substrate of MGMT that quenches the cellular store of enzyme). T98G cell lysates were probed with anti-MGMT antibody and then with anti-a tubulin (FIG. 4). In a separate experiment, TMZ or test compounds were added to T98G cells with or without 5-6 hours of pretreatment with 100 μM O^6-BG. Cell viability was measured using the Cell Titer Glo assay after 3 days of incubation and IC50 values were determined (Table 3).

[4] = Aqueous chemical stability (HPLC-MS); type: physicochemical
Procedure: Detection of products of non-enzymatic cleavage (AIC-TMZ, AIC-TP3, AIC-TP5, and AIC-TP9) was performed (Table 4; FIGS. 5A-5D).

[5] = BBB permeability, cassette intravenous dosing; type: in vivo, male CD-1 mice; details: cassette IV 5 mg/kg; for concentration at 5 min: 10% DMSO in PBS
Procedure: BBB permeability of the compounds was tested in male CD-1@IGS mice using cassette intravenous dosing (Table 7 and FIGS. 6A and 6B). There were three animals in each group, given a dose of 5 mg/kg formulated in 10% DMSO in PBS (v/v) for 5 minutes. The endpoint was quantifying the parent compound using LC-MS/MS. Plasma samples (50 μl) were immediately mixed with 25 μl of H3PO4 (8.5%). Then 225 μl of internal standard (IS; 400 ng/ml meldonium in methanol) was added. After mixing by pipetting and centrifuging for 4 min at 6000 rpm, 2 μl of each supernatant was injected into LC-MS/MS system. Brain samples (100 mg±1 mg) were immediately mixed with 100 μl H3PO4 (25%) and zirconium oxide beads (115 mg±5 mg). Then 400 μl of IS solution was added and samples were disperse using a bullet blender homogenizer for 30 seconds at speed 8. The samples were centrifuged for 4 min at 14,000 rpm and 2 μl of each supernatant was injected into LC-MS/MS system.

GBM8 = test: AlamarBlue cell viability, GBM8 patient-derived cell line; type: cell-based; details: 72 h, read-out: IC50, 72 h
Procedure: as §4

[6] = Metabolic stability in mouse liver microsomes; type: in vitro ADME
Procedure: Metabolic stability of the compounds was also determined in mouse liver microsomes at five time points over 60 minutes, using HPLC-MS. Liver microsomes, as vesicles of the hepatocyte endoplasmic reticulum, contain membrane phase I enzymes namely CYPs, flavine-containing monooxygenases (FMO), esterases, amidases, and epoxide hydrolases, and also the phase II enzymes such as UGTs. For the catalytic activity of both phase I and II enzymes, addition of exogenous cofactors such as NADPH for CYPs and FMO, and UDPGA/alamethicin for UGTs is necessary.

SMILES: Cn1nnc2c(C(=O)NCCCC[C@@H]3NC(=O)[C@@H](Cc4ccc(O)cc4)NC(=O)[C@H](CC(=O)O)NC(=O)CNC(=O)[C@H](CCCNC(=N)N)NC3=O)ncn2c1=O [TP-RGD]
IC50 (U251 [1]): 70.2 µM | % decomp. ([2]; 0.5 h): 0% | % decomp. ([2]; 1 h): 18.2% | % decomp. ([2]; 1.5 h): 33.9% | % decomp. ([2]; 2 h): 53.5% | % decomp. ([2]; 2.5 h): 56.8% | % decomp. ([2]; 3 h): 61.6% | % decomp. ([2]; 4 h): 94.7% | % decomp. ([2]; 4.5 h): 94.7% | % SM ([2]; 1 h): 81.8% | % SM ([2]; 1.5 h): 65.5% | % SM ([2]; 2 h): 45.9% | % SM ([2]; 2.5 h): 39.3% | % SM ([2]; 3 h): 27.4% | % SM ([2]; 4 h): 2.3% | % SM ([2]; 4.5 h): 2.3% | product formation (hydrolysis) ([2]; phosphate buffer pH>7.4, room temperature): no product formation | efflux ratio (P-glycoprotein (P-gp)): 0.57 | IC50 (U87; U87MG, MGMT −, Table 14): > 100 µM | IC50 (T98G; read-out: IC50, 72 h, MGMT +++, Table 14): 0.254 µM | IC50 (U251 [3]; U251, MGMT −, Table 14): 0.306 µM | IC50 (A172): 0.383 µM

efflux ratio (P-gp; Caco-2, Efflux Ratio): 21.7
SMILES: CC[C@]1(O)C[C@@H]2CN(CCc3c([nH]c4ccccc34)[C@@](C(=O)OC)(c3cc4c(cc3OC)N(C)[C@H]3[C@@](O)(C(=O)OC)[C@H](OC(C)=O)[C@]5(CC)C=CCN6CC[C@]43[C@@H]65)C2)C1 [Vinblastine]

Efflux Ratio BA/AB p-gp Inhibitor (+) (Caco-2): 1.0 | Papp (AB) p-gp Inhibitor (+) (Caco-2): 5.9 10^−6 cm/s | Papp (BA) p-gp Inhibitor (+) (Caco-2): 6.1 10^−6 cm/s | Papp A→B (P-gp; Caco-2): 1.2 ×10⁻⁶ cm/s | Papp B→A (P-gp; Caco-2): 15.8 ×10⁻⁶ cm/s | efflux ratio (P-gp; Caco-2, Efflux Ratio BA/AB p-gp Inhibitor (−)): 13.6
SMILES: C[C@H]1O[C@@H](O[C@H]2[C@@H](O)C[C@H](O[C@H]3[C@@H](O)C[C@H](O[C@H]4CC[C@@]5(C)[C@H](CC[C@@H]6[C@@H]5C[C@@H](O)[C@]5(C)[C@@H](C7=CC(=O)OC7)CC[C@]65O)C4)O[C@@H]3C)O[C@@H]2C)C[C@H](O)[C@@H]1O [Digoxin]

SMILES: O[C@H]([C@H](O)[C@@H]1CO1)[C@H]1CO1 [VAL-083, reference compound]
IC50 (T98G cells; 5-6 h pretreatment with 100 μM O6-BG, 3 days, read-out: IC50 With O^6-BG pretreatment): 71 µM | IC50 (T98G cells; 3 days, read-out: IC50 Without O^6-BG pretreatment): 108 µM

SMILES: Cn1nnc2c(C(=O)NC3CCCCC3)ncn2c1=O [TP5, N-cyclohexyl-3-methyl-4-oxo-3,4-dihydroimidazo[5,1-d][1,2,3,5]tetrazine-8-carboxamide]
half-life at 1 μM ([4]; 0.1 M phosphate buffer pH 7.0): > 2 h | half-life at 1 μM ([4]; 0.1 M phosphate buffer pH 8.0): 0.667 h | half-life at 1 μM ([4]; PBS pH 7.4): 1.15 h | IC50 (T98G cells; Homo sapiens, read-out: IC50 With O^6-BG pretreatment): 168 µM | IC50 (T98G cells; Homo sapiens, read-out: IC50 Without O^6-BG pretreatment): 410 µM | efflux ratio (P-gp; Caco-2, without verapamil, read-out: Efflux Ratio BA/AB p-gp Inhibitor (−)): 0.9 | Papp A→B (P-gp; Caco-2, without verapamil, read-out: Papp (AB) p-gp Inhibitor (−)): 26.6 ×10⁻⁶ cm/s | Papp B→A (P-gp; Caco-2, without verapamil, read-out: Papp (BA) p-gp Inhibitor (−)): 24.3 ×10⁻⁶ cm/s | % Brain ([5]; 5 min): 25% | % Plasma ([5]; 5 min): 75% | concentration at 5 min ([5]; male, CD-1, mouse, brain, read-out: Brain Conc.): 3050 ng/g | Kp at 5 min ([5]; male, CD-1, mouse, brain/plasma): 0.99 | concentration at 5 min ([5]; male, CD-1, mouse, plasma, read-out: Plasma Conc): 3120 ng/mL | IC50 (GBM8): 28 µM | Clearance Classification (Low <8.6; High >48) [6]: Moderate | microsomal CLint ([6]; mouse, liver microsomes, read-out: Intrinsic clearance (Clint)): 25 µL/min/mg | % remaining (1 h) With co-factors ([6]; with co-factors): 49% | % remaining (1 h) Without co-factors ([6]; without co-factors): 94% | IC50 (U87; Homo sapiens, U-87 MG, 72 h): 168 µM | IC50 (T98G; Homo sapiens, 72 h, read-out: IC50, 72 h): 581 µM | IC50 (U251 [3]; Homo sapiens, U-251, 72 h): 139 µM
